Assay results reported in patent US20190175609A1, “THERAPEUTIC USES OF A C-RAF INHIBITOR” (Novartis AG, priority 2016, published 2019).

Legend:
[1] = molecular target: b-Raf (Homo sapiens, UniProt P15056); assay: b-Raf biochemical assay; settings: read-out: b-Raf IC-50
[2] = molecular target: c-Raf FL (Homo sapiens, UniProt P04049); assay: c-Raf FL biochemical assay; settings: read-out: c-Raf FL IC-50
[3] = tested on: Calu-6 (KRAS Q61K), HCT116 (KRAS G13D); assay: cell-based anti-proliferative assay, Calu-6 and HCT116; settings: Homo sapiens; range over Calu-6 and HCT116; read-out: IC50, inhibition of proliferation
[4] = tested on: Calu-6 (KRAS Q61K) xenografts; assay: Calu-6 xenograft in nude mice; format: in vivo
Description: Female nude tumor bearing Calu6 mice, n=6 per group were randomized into treatment groups on day 17 following tumor implantation, when the average tumor volume was 180 mm3. […] Dosing volume was 10 mL/kg. Tumor volumes were collected at the time of randomization and twice weekly thereafter for the study duration.
(§1) Regressions were also achieved in a second human NSCLC model, NCI-H358, at the 200 mg/kg QD dose in mice and in the human ovarian Hey-A8 xenograft at doses as low as 30 mg/kg QD in mice.

[5] = tested on: Calu-6 (KRAS Q61K) xenografts; assay: Calu-6 xenograft in nude rats; format: in vivo
[6] = tested on: NCI-H358 (KRAS G12C) xenografts; assay: NCI-H358 xenograft in mice; format: in vivo
Description: SCID beige female tumor bearing NCI-H358 mice, n=8 per group, were randomized into 3 groups 14 days post tumor cell inoculation with an average tumor volume range of 259.44-262.47 mm^3.
Tumor volumes were measured by digital caliper 3 times a week and body weights of all animals were recorded through the course of treatment.
as §1

[7] = tested on: Hey-A8 (KRAS G12D, BRAF G464E) xenografts; assay: Hey-A8 ovarian xenograft in mice; format: in vivo
Description: as §1

[8] = tested on: SKMEL30 cells (NRAS Q61K melanoma cells); assay: SKMEL30 NRAS-mutant melanoma xenograft in nude mice; format: in vivo; settings: for % regression: day 21 post-implant (9 days of treatment)
Description: […]. Mice were randomized into treatment groups on day 12 post implantation, when the average tumor volume was ˜200 mm^3. […] Treatments began on day 12 and continued until day 21 post implantation. Tumor volume and body weights were collected at the time of randomization and twice per week for the study duration. Tumor volume was determined by measurement with calipers and calculated using a modified ellipsoid formula, where tumor volume (TV) (mm^3)=[((1×w2)×3.14159))/6], where 1 is the longest axis of the tumor and w is perpendicular to 1. Mice were monitored for tumor growth, body weight and body condition. Animal well-being and behavior were monitored twice weekly. General health of mice was monitored daily. The anti-tumor activity was determined by assessing % T/C or % regression on day 21 post-implant (9 days of treatment).

[9] = tested on: H727 Model; assay: H727 model, KRASmt NSCLC xenograft; format: in vivo, mice; settings: FIGS. 15A, 15B, 15C (H358, Calu6, H727 models); H727: 100 mg/kg daily oral, 14 days
[10] = tolerability in KRAS- and NRAS-mutant xenograft models (body weight); format: in vivo; settings: all xenograft models
Description: as §1

[11] = tested on: non-small cell lung cancer (NSCLC); assay: Phase I dose finding study of Compound A, single agent; format: in vivo, human; settings: one NSCLC subject, 1200 mg QD, preliminary
Description: Provisional doses for dose escalation can be found in the Table below. […]
In the dose expansion part, patients in Compound A single agent arm are treated with Compound A at the recommended dose and regimen selected based on the dose escalation data. This dose is expected to be safe and tolerated in adult patients in all indications included in the trial. The single agent arm consists of 3 distinct groups: KRAS- and/or BRAF-mutant NSCLC, KRAS- and/or BRAF-mutant ovarian cancer, and patients with other solid tumors (which may be advanced) harboring MAPK pathway alteration(s) such as relapsed/refractory melanoma after failure of BRAFi/MEKi combination therapy and NRAS-mutant melanoma patients.
This was further confirmed by preliminary results obtained from the clinical trial.

[12] = predicted human PK of Compound A
[13] = cell-based anti-proliferative assay, melanoma and NSCLC lines; settings: Homo sapiens, read-out: IC50, inhibition of proliferation
[14] = tested on: advanced NRAS-mutant melanoma; settings: cited from earlier work
[15] = patients with NRAS-mutant melanoma

Chain of b-Raf (P15056 2-766): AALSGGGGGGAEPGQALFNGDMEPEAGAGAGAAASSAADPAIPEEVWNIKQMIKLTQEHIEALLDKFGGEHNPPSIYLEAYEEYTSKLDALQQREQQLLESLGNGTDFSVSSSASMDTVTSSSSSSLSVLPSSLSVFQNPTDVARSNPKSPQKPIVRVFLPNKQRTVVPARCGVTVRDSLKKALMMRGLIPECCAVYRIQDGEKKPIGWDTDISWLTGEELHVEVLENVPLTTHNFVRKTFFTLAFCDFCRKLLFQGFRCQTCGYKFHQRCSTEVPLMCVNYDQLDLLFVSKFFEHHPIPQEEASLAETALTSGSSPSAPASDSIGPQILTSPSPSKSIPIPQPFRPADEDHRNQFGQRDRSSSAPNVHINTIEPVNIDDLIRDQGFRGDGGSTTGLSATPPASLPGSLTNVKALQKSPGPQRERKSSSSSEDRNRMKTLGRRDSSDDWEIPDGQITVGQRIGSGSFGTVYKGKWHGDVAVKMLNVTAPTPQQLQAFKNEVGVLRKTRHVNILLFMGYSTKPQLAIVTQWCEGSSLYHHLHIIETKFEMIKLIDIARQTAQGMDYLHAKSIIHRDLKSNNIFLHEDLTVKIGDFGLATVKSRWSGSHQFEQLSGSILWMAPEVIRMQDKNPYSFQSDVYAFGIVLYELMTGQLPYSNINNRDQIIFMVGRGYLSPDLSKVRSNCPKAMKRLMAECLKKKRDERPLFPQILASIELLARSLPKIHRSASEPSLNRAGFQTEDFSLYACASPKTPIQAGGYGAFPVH
Chain of c-Raf FL (P04049 whole entry): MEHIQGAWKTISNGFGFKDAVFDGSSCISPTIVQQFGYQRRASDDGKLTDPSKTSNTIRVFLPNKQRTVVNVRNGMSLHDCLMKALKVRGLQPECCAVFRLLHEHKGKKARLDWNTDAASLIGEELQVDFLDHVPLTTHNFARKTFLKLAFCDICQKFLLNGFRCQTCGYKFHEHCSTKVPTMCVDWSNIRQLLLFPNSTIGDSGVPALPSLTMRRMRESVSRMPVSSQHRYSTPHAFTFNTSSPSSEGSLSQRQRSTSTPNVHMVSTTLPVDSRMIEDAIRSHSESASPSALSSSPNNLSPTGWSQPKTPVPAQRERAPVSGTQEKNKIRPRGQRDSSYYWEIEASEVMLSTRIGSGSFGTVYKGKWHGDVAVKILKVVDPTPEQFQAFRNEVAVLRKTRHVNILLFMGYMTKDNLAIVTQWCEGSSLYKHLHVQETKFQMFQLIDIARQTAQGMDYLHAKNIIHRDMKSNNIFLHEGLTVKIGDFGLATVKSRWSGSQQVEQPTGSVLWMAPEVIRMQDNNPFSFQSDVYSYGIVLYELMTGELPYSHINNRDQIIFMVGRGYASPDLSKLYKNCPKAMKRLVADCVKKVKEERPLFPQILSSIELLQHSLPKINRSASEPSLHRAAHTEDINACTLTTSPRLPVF

## Cc1ccc(NC(=O)c2ccnc(C(F)(F)F)c2)cc1-c1cc(OCCO)nc(N2CCOCC2)c1 [COMPOUND A, N-(3-(2-(2-hydroxyethoxy)-6-morpholinopyridin-4-yl)-4-methylphenyl)-2-(trifluoromethyl)isonicotinamide]
[1]
  IC50: 0.73 nM
[2]
  IC50: 0.2 nM
[3]
  IC50: 200 to 1200 nM
[4]; 30 mg/kg QD, mice
  anti-tumor effect: Tumor stasis
[4]; 100, 200, and 300 mg/kg once daily (QD), nude mice
  anti-tumor effect: regressions
[4]; Calu-6 xenograft, dose not stated
  anti-tumor effect: tumor regression
[4]; Calu-6 xenograft, dose not stated, listed as Compound A
  anti-tumor effect: tumor regressions
[5]; 35 mg/kg QD, rats
  anti-tumor effect: Tumor stasis
[5]; 75 and 150 mg/kg QD, nude rats
  anti-tumor effect: regressions
[6]; 200 mg/kg QD, mice
  anti-tumor effect: Regressions
[6]; NCI-H358 xenograft, dose not stated
  anti-tumor effect: tumor regression
[6]; NCI-H358 xenograft, dose not stated, listed as Compound A
  anti-tumor effect: tumor regressions
[7]; Hey-A8 xenograft, dose not stated
  anti-tumor effect: tumor regression
[7]; Hey-A8 xenograft, dose not stated, listed as Compound A
  anti-tumor effect: tumor regressions
[7]; doses as low as 30 mg/kg QD, mice
  anti-tumor effect: Regressions
[8]; 25 mg/kg bid
  % regression: 48%
[8]; 100 mg/kg bid
  % regression: 59%
[8]; 25 and 100 mg/kg bid, body weight, toxicity signs, mortality
  tolerability: well tolerated
[8]; SK-MEL-30 melanoma model, dose not stated
  anti-tumor effect: tumor regression
[9]
  single agent activity in KRASmt NSCLC models: showed single agent activity
[10]
  tolerability judged by body weight loss: well tolerated
[11]
  partial response according to RECIST: −35%
[12]
  predicted half-life: ~9 h
[13]
  IC50: 200 to 1200 nM

## Cn1cnc2c(F)c(Nc3ccc(Br)cc3F)c(C(=O)NOCCO)cc21 [binimetinib]
[14]; binimetinib vs. dacarbazine
  HR for PFS, in favor of binimetinib: 0.62 (0.47-0.80)
[14]; [15]
  discontinuation rate as a result of adverse events suspected to be related to study drug: 20%
  median PFS (95% CI): 2.8 (95% CI: 2.8-3.6)
  overall response rate: 15%
  overall survival (95% CI): 11.0 (95% CI: 8.9-13.6) months

## CN(C)/N=N/c1[nH]cnc1C(N)=O [dacarbazine]
[14]; [15]
  discontinuation rate as a result of adverse events suspected to be related to study drug: 5%
